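Method: 48-hour compound exposure of cells in 96-well plates, five concentrations, linear interpolation of endpoints. Here, GI50 denotes the concentration required for 50% inhibition of growth. TGI: concentration producing complete growth inhibition.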

Some test systems named below: COLO 205 colon; K-562 leukemia; LOX IMVI melanoma; M14 melanoma; MOLT-4 leukemia; OVCAR-5 ovarian; PC-3 prostate; SNB-75 CNS; SR leukemia; T-47D breast.
Assay in all cases: NCI tumour cell line growth inhibition, 48 h

In the case of `O=C1c2cccc3cccc(c23)C(=O)N1CC#Cc1ccc2c3c(cccc13)C(=O)N(CCN1CCNCC1)C2=O`, the GI50 with COLO 205 colon is 3.3 µM; with K-562 leukemia, 1.16 µM; with LOX IMVI melanoma, 1.94 µM; with M14 melanoma it was 2.53 µM; in the assay on MOLT-4 leukemia, 2.17 µM; in the assay with OVCAR-5 ovarian it was 2.82 µM. In addition, the GI50 with PC-3 prostate was 3.22 µM; in the assay on SNB-75 CNS it was 4.49 µM; in the assay with SR leukemia, 1.98 µM; in the assay on T-47D breast, 2.03 µM. In addition, the TGI turned out to be 12.4 µM with COLO 205 colon; 2.75 µM in the assay on K-562 leukemia; 3.87 µM in the assay with LOX IMVI melanoma; 6.19 µM in the assay with M14 melanoma; 5.07 µM with MOLT-4 leukemia; 10.3 µM in the assay with OVCAR-5 ovarian. In addition, the TGI amounted to 11.6 µM in the assay with PC-3 prostate, 19.9 µM in the assay with SNB-75 CNS, 4.78 µM in the assay with SR leukemia and 5.11 µM in the assay with T-47D breast.
On to `O=S(=O)(CC(O)C(Cl)(Cl)Cl)NNc1ccccc1` (stereo not given), for which the TGI in the assay with COLO 205 colon, in the assay on K-562 leukemia, with LOX IMVI melanoma, with M14 melanoma, with MOLT-4 leukemia and with OVCAR-5 ovarian was > 100 µM in each case. In addition, the TGI with PC-3 prostate, in the assay with SNB-75 CNS, with SR leukemia and in the assay on T-47D breast was > 100 µM each time.
`CCCCCCCCCCCCNC(=O)[C@H]1CSC(c2cc(Br)cs2)N1` (stereo not given in full): the GI50 was 8.16 µM with COLO 205 colon; 1.13 µM in the assay with K-562 leukemia; 0.797 µM in the assay on LOX IMVI melanoma; 0.858 µM in the assay on M14 melanoma; 0.774 µM with MOLT-4 leukemia; 1.94 µM in the assay with OVCAR-5 ovarian. Also, the GI50 is 0.981 µM in the assay with PC-3 prostate, 0.851 µM in the assay on SNB-75 CNS, 0.967 µM with SR leukemia and 1.98 µM in the assay with T-47D breast. Also, the TGI stood at 16 µM in the assay on COLO 205 colon; 2.46 µM in the assay on K-562 leukemia; 1.56 µM with LOX IMVI melanoma; 1.65 µM in the assay on M14 melanoma; 1.76 µM with MOLT-4 leukemia; 6.49 µM in the assay with OVCAR-5 ovarian. For the same molecule, the TGI was 2.25 µM with PC-3 prostate, 1.56 µM with SNB-75 CNS, 2.27 µM in the assay on SR leukemia and 8.66 µM in the assay with T-47D breast.
As for `Cc1cc(N2CCN(C)CC2)nc(N(CCNc2ccnc3cc(Cl)ccc23)Cc2ccco2)n1`, the GI50 with COLO 205 colon was 1.88 µM; in the assay on K-562 leukemia, 1.59 µM; in the assay with LOX IMVI melanoma, 1.77 µM; in the assay with M14 melanoma it was 1.78 µM; in the assay with MOLT-4 leukemia, 2.8 µM; in the assay with OVCAR-5 ovarian, 5.89 µM. Also, the GI50 is 3.7 µM with PC-3 prostate, 4.1 µM in the assay on SNB-75 CNS, 2.09 µM with SR leukemia and 2.07 µM with T-47D breast. Moreover, the TGI in the assay on COLO 205 colon came to 5.18 µM; in the assay with K-562 leukemia it was 4.78 µM; in the assay with LOX IMVI melanoma it was 3.56 µM; in the assay with M14 melanoma, 3.3 µM; in the assay with MOLT-4 leukemia it was 10.9 µM; in the assay on OVCAR-5 ovarian, 19.4 µM. Further, the TGI was found to be 13.8 µM in the assay with PC-3 prostate, 19.6 µM in the assay on SNB-75 CNS, 5.23 µM in the assay on SR leukemia and 6.41 µM with T-47D breast.
On to `Cc1cc(NS(=O)(=O)c2ccc(NC(=O)COc3ccc(-c4cc5ccccc5[nH]4)cc3)cc2)no1`, for which the GI50 with COLO 205 colon was 1.78 µM; in the assay with K-562 leukemia, 2.06 µM; with LOX IMVI melanoma it was 1.86 µM; with M14 melanoma, 1.71 µM; in the assay on MOLT-4 leukemia, 2.05 µM; in the assay with OVCAR-5 ovarian, 2.26 µM. Moreover, the GI50 with PC-3 prostate is 1.94 µM; with SNB-75 CNS, 1.5 µM; in the assay on SR leukemia, 1.67 µM; in the assay with T-47D breast, 2.75 µM. Moreover, the TGI in the assay on COLO 205 colon was 3.27 µM; in the assay with K-562 leukemia, > 100 µM; in the assay with LOX IMVI melanoma it was 5.18 µM; with M14 melanoma, 4.32 µM; with MOLT-4 leukemia, 9.72 µM; in the assay on OVCAR-5 ovarian, 5.68 µM. Besides, the TGI was 6.91 µM with PC-3 prostate, 4.68 µM in the assay on SNB-75 CNS, > 100 µM with SR leukemia and 8.56 µM in the assay on T-47D breast.
Take `NC(Cc1ccc(O)cc1)C(=O)N/N=C/c1ccc(N(CCCl)CCCl)cc1` (stereo not given): the GI50 is 44.5 µM in the assay on COLO 205 colon; 3.59 µM in the assay with K-562 leukemia; 5.73 µM with LOX IMVI melanoma; 17.5 µM with M14 melanoma; 0.454 µM with MOLT-4 leukemia; 27.4 µM with OVCAR-5 ovarian. For the same molecule, the GI50 was 11.7 µM with PC-3 prostate, 12.6 µM in the assay with SNB-75 CNS, 0.189 µM in the assay on SR leukemia and 10.1 µM with T-47D breast. Further, the TGI is > 100 µM with COLO 205 colon; > 100 µM in the assay on K-562 leukemia; 68.4 µM in the assay on LOX IMVI melanoma; 81.2 µM in the assay on M14 melanoma; > 100 µM with MOLT-4 leukemia; > 100 µM in the assay on OVCAR-5 ovarian. The TGI was > 100 µM in the assay with PC-3 prostate, > 100 µM in the assay with SNB-75 CNS, 20.4 µM with SR leukemia and > 100 µM with T-47D breast.
In the case of `C[C@@H](Oc1cc(-c2cnn(C3CC4(CNC4)C3)c2)cnc1N)c1c(Cl)ccc(F)c1Cl`, the GI50 in the assay on COLO 205 colon was 1.38 µM; in the assay with K-562 leukemia, 0.349 µM; in the assay on LOX IMVI melanoma, 1.96 µM; in the assay on M14 melanoma, 1.57 µM; in the assay with MOLT-4 leukemia it was 1.03 µM; in the assay with OVCAR-5 ovarian, 1.82 µM. Moreover, the GI50 was 2.64 µM with PC-3 prostate, 2.44 µM in the assay with SNB-75 CNS, 0.0769 µM in the assay with SR leukemia and 3.89 µM with T-47D breast. Further, the TGI worked out at 3.3 µM with COLO 205 colon; 5.43 µM in the assay on K-562 leukemia; 6.79 µM in the assay on LOX IMVI melanoma; 3.37 µM in the assay on M14 melanoma; 7.27 µM with MOLT-4 leukemia; 14.2 µM with OVCAR-5 ovarian. The TGI turned out to be 15.6 µM in the assay with PC-3 prostate, 9.29 µM with SNB-75 CNS, 2.05 µM in the assay on SR leukemia and 16.7 µM in the assay on T-47D breast.
As to `O=C(O)CN(CC(=O)O)c1ccccc1`, the TGI in the assay with COLO 205 colon, with K-562 leukemia, in the assay on LOX IMVI melanoma, in the assay with M14 melanoma, in the assay on MOLT-4 leukemia and in the assay on OVCAR-5 ovarian was > 100 µM each time. In addition, the TGI with PC-3 prostate, with SNB-75 CNS, in the assay on SR leukemia and in the assay on T-47D breast was > 100 µM in each case.
